Here are results for 76 compounds from PubChem BioAssay AID504726 (Broad Institute, 2011).

SMILES strings stand for the structures. Active and inactive are the calls of the source.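 How the source made its calls: active means fitted half-maximal concentration for a cytotoxic signal drop no higher than ten times the top valid dose tested; inconclusive means flat curve between -70 and -30 percent, or an unreliable fit; inactive means flat within 30 percent, signal rise, or potency beyond limit.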

The nature of this assay: viability loss in HeLa cells – cell-based, 24 h, cherry-picked samples, cytotoxicity control, dose response (AID 504726).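 Further: 0% = DMSO neutral controls and -100% = mitoxantrone positive controls.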 The conditions noted are these: HeLa viability, CellTiter-Glo ATP luminescence, 24 h; at 35 µM (top of the series).
On to `CC(C)=C1C2C=CC1C(C(=O)Nc1cc(C)ccc1C)C2C(=O)O` (stereo unspecified), for which the activity change, negative = cytotoxicity is -4.56% (inactive).

Consider `CCSc1nnc(Cc2cc(=O)[nH]c(=O)[nH]2)n1-c1ccc(F)cc1`, for which the activity change, negative = cytotoxicity is -15.6% (inactive).

As to `O=C(CN1C(=O)NC2(CCCC2)C1=O)Nc1ccccc1-c1ccccc1`, the activity change, negative = cytotoxicity was -3.7% (inactive).

With `CN(CC(=O)Nc1ccc(N2CCOCC2)cc1)C(=O)CSc1ccc(Br)cc1`, the activity change, negative = cytotoxicity was 0.641% (inactive).

As for `COC(=O)c1ccccc1OCC(=O)N1CCN(c2ccc(Cl)cc2)CC1`, the activity change, negative = cytotoxicity is -6.81% (inactive).

As for `NC(=O)C1=NOC(CNc2ncc(C(F)(F)F)cc2Cl)C1` (stereo unspecified), the activity change, negative = cytotoxicity was -1.63% (inactive).

For `Cc1cccc(COc2ccc(/C=N/NC(=O)c3nnn(-c4nonc4N)c3COc3ccc(F)cc3)cc2)c1`, the activity change, negative = cytotoxicity was -4.08% (inactive).

Consider `C=CCN1C(=O)/C(=c2\sc3nc(=O)c(Cc4ccccc4Cl)nn3c2=O)c2ccccc21`, for which the activity change, negative = cytotoxicity is -9.87% (inactive).

In the case of `COc1ccc(C(=O)c2ccsc2N)cc1`, the activity change, negative = cytotoxicity was 2.38% (inactive).

As to `Cc1cc(=O)oc2cc(OCC(=O)N3CCN(Cc4ccc5c(c4)OCO5)CC3)ccc12`, the activity change, negative = cytotoxicity is -5.71% (inactive).

For the compound `Nc1nnc(CC(=O)N/N=C/c2cc([N+](=O)[O-])cc(Br)c2O)s1`, the activity change, negative = cytotoxicity is -8.04% (inactive).

For `CCN(CC)C(=S)SC1CCCCN(C(=O)c2ccccc2)C1=O` (stereo unspecified), the activity change, negative = cytotoxicity is -6.6% (inactive).

Consider `O=C(c1ccccc1)c1ccc(O)cc1O`, for which the activity change, negative = cytotoxicity is -20.5% (inactive).

For `Cc1ccccc1N1C(=O)c2cccc3c(N(C)CCO)ccc(c23)C1=O`, the activity change, negative = cytotoxicity was -13.3% (inactive).

For `O=C(O)CC1(CC(=O)NCc2ccncc2)CCCCC1`, the activity change, negative = cytotoxicity was -9.28% (inactive).

Turning to `COc1ccc(NC(=O)CO/N=C2/CCCc3nonc32)c(OC)c1`, the activity change, negative = cytotoxicity is -3.9% (inactive).

Regarding `O=C(CCNc1ccc(Cc2ccncc2)cc1)c1cccc([N+](=O)[O-])c1`, the activity change, negative = cytotoxicity was -10% (inactive).

For the compound `COCCNC(=O)Cn1cc(/C=C2\C(=O)NC(=O)N(c3cccc(C)c3C)C2=O)c2ccccc21`, the activity change, negative = cytotoxicity is -12.7% (inactive).

Turning to `CN(C)/C=C1\C=C2C(=O)c3ccccc3N2C1=O`, the activity change, negative = cytotoxicity is -8.99% (inactive).

For the compound `O=c1oc2ccccc2nc1/C=C(\O)c1ccc(Br)cc1`, the activity change, negative = cytotoxicity was -12.7% (inactive).

Take `Nc1ccc(C(=O)Nc2ccc3c(O)cc(S(=O)(=O)O)cc3c2)cc1`: the activity change, negative = cytotoxicity was -4.38% (inactive).

Regarding `CCOc1ccc(S(=O)(=O)N(C)c2ccc(OCC(=O)NC3=NCCS3)cc2)cc1`, the activity change, negative = cytotoxicity was -12.3% (inactive).

For the compound `CC(Oc1ccccc1)c1nnc(N)s1` (stereo unspecified), the activity change, negative = cytotoxicity was -3.11% (inactive).

For the compound `CN1CC=C2C(C#N)=C(N)C(C#N)(C#N)[C@H](c3ccoc3)[C@H]2C1`, the activity change, negative = cytotoxicity is 0.209% (inactive).

With `CCOC(=O)[C@H]1[C@H]2COc3cc(OC)ccc3[C@@H]2N2C(=O)CN(Cc3ccc(OC)cc3)C(=O)[C@@]12C`, the activity change, negative = cytotoxicity was -9.01% (inactive).

For `O=C(OCCN1C(=O)c2cccc3c(N4CCOCC4)ccc(c23)C1=O)c1ccc(Cl)cc1`, the activity change, negative = cytotoxicity was -11.7% (inactive).

In the case of `CCc1nnc(NC(=O)c2cccc(S(=O)(=O)N(C)c3ccccc3)c2)s1`, the activity change, negative = cytotoxicity was -7.23% (inactive).

As to `Cc1ccc(C(CC(=O)N2CCCCC2)c2ccccc2)c(O)c1C` (stereo unspecified), the activity change, negative = cytotoxicity was -3.99% (inactive).

Regarding `COc1cc(C(=O)O)cc(NC(=O)c2ccco2)c1OC`, the activity change, negative = cytotoxicity is -8.57% (inactive).

On to `C=CCNC(=O)c1cn(CC)c2cc(N3CCN(C(=O)c4ccco4)CC3)c(F)cc2c1=O`, for which the activity change, negative = cytotoxicity was 6.14% (inactive).

For the compound `Cn1c2ccccc2c2cnn(CC(=O)Nc3cccc(F)c3)c(=O)c21`, the activity change, negative = cytotoxicity is -9.52% (inactive).

Regarding `COc1ccc(-c2csc(NC(=O)CSc3nc(C)nc4sc(C(=O)O)c(C)c34)n2)cc1`, the activity change, negative = cytotoxicity is -1.52% (inactive).

As to `Cc1cnc(NC(=O)Cc2c[nH]c3ccccc23)s1`, the activity change, negative = cytotoxicity is -3.77% (inactive).

Turning to `COc1cc(O)c(C(C)=O)c(CC(=O)O)c1`, the activity change, negative = cytotoxicity is -0.718% (inactive).

Take `Cc1c(C)n(CCC(=O)O)c2ccccc12`: the activity change, negative = cytotoxicity was -6.21% (inactive).

Take `Cn1c(=O)oc2cc(S(=O)(=O)CCC(=O)N3CCN(c4ccccc4F)CC3)ccc21`: the activity change, negative = cytotoxicity is -1.08% (inactive).

As to `O=C(O)C1Nc2c(O)cc(Cl)c([N+](=O)[O-])c2C2C=CCC12` (stereo unspecified), the activity change, negative = cytotoxicity is -21.5% (inactive).

For the compound `O=C(O)C1C2C=CC(CC2)C1C(=O)O` (stereo unspecified), the activity change, negative = cytotoxicity was -1.75% (inactive).

For the compound `O=C(NCCN1CCN(C(=O)c2cccs2)CC1)c1cccs1`, the activity change, negative = cytotoxicity was -5.34% (inactive).

In the case of `CCc1ccc(N2CC(C(=O)OCC(=O)N(CC)c3c(N)n(Cc4ccccc4)c(=O)[nH]c3=O)CC2=O)cc1` (stereo unspecified), the activity change, negative = cytotoxicity was -9.97% (inactive).

`COc1ccc(CCNC(=O)CNC(=O)Cn2ccc3ccccc3c2=O)cc1OC`: the activity change, negative = cytotoxicity is 2.19% (inactive).

As to `CCn1c(SCc2nc3sc(C(=O)O)c(C)c3c(=O)[nH]2)nc2ccccc21`, the activity change, negative = cytotoxicity was -9.24% (inactive).

As for `CC(=O)Nc1ccc(S(=O)(=O)Nc2ccccc2N2CCOCC2)cc1`, the activity change, negative = cytotoxicity is 1.3% (inactive).

As for `COc1ccc(C2(CNC(=O)CCC(=O)O)CCCC2)cc1OC`, the activity change, negative = cytotoxicity was -16% (inactive).

On to `CC(C)=C[C@@H]1C[C@H](C)[C@H]2CC[C@H](C)c3c(O[C@@H]4O[C@@H](C)[C@@H](O)[C@@H](O)[C@@H]4O)c(O)c(C)c1c32`, for which the activity change, negative = cytotoxicity is -5.47% (inactive).

As for `Cc1cccc(C)c1NC(=O)CSc1nnc(-c2ccco2)c(-c2ccco2)n1`, the activity change, negative = cytotoxicity was -6.45% (inactive).

Regarding `Cc1ccccc1C1=C/C(=C(\SS/C(C(=O)c2ccc(OCC(=O)O)c(Cl)c2Cl)=C2\C=C(c3ccccc3C)SS2)C(=O)c2ccc(OCC(=O)O)c(Cl)c2Cl)SS1`, the activity change, negative = cytotoxicity was -8.33% (inactive).

Consider `O=C1C(=Cc2ccco2)CCC1=Cc1ccco1`, for which the activity change, negative = cytotoxicity is -6.04% (inactive).

For the compound `Cc1ccc(NC(=O)CN2C(=O)N/C(=C/c3cccn3-c3ccc(C(=O)O)cc3)C2=O)cc1`, the activity change, negative = cytotoxicity is -4.45% (inactive).

For `COc1cccc(NC(=O)CN(C)C(=O)c2cc3ccccc3cc2OC)c1`, the activity change, negative = cytotoxicity is 6.23% (inactive).

With `COc1ccc(OC)c(NC(=O)c2nnn(Cc3ccc(Br)cc3F)c2N)c1`, the activity change, negative = cytotoxicity is -9.89% (inactive).

For the compound `Cc1cc(C)nc(SCC(=O)N/N=C/c2cc(C)n(-c3ccccc3C)c2C)n1`, the activity change, negative = cytotoxicity is -7.55% (inactive).

For the compound `COc1ccccc1C(=O)NCC(=O)OCC(=O)N(CC(C)C)c1c(N)n(Cc2ccccc2)c(=O)[nH]c1=O`, the activity change, negative = cytotoxicity is 1.22% (inactive).

Regarding `O=C1/C(=C/c2ccco2)Oc2c1ccc(O)c2CN1CCCCC1`, the activity change, negative = cytotoxicity was 4.96% (inactive).

For the compound `Nc1ccc2nonc2c1[N+](=O)[O-]`, the activity change, negative = cytotoxicity is 2.26% (inactive).

As to `Cc1nnc(NC(=O)CN2C(=O)NC3(CCCC3)C2=O)s1`, the activity change, negative = cytotoxicity was -0.18% (inactive).

Turning to `COC(=O)C1=C(N)OC2=C(C(=O)CCC2)C1c1cccs1` (stereo unspecified), the activity change, negative = cytotoxicity is -5.56% (inactive).

Turning to `CCN(Cc1ccccc1)C(=O)c1cccc(S(=O)(=O)N2CCN(Cc3ccccc3)CC2)c1`, the activity change, negative = cytotoxicity was 1.39% (inactive).

On to `C=C(C)C(=O)Nc1cccc(C2=NOC3(C2)C[C@@H](C(N)=O)N(C(=O)C2(C)CC2)C3)c1` (stereo partly specified), for which the activity change, negative = cytotoxicity is 1.25% (inactive).

In the case of `COc1ccc(-c2cc(C(=O)N(C)CCc3ccc(OC)c(OC)c3)c3ccccc3n2)cc1`, the activity change, negative = cytotoxicity was -7.16% (inactive).

For the compound `Nc1ccc2c3c(cccc13)C(=O)N(c1ccccc1)C2=O`, the activity change, negative = cytotoxicity was 19% (inactive).

On to `NNC(=S)Nc1ccc(S(=O)(=O)N2CCOCC2)cc1`, for which the activity change, negative = cytotoxicity is 0.037% (inactive).

Consider `Cc1ccc(C)c(N2CCN(C(=O)c3cc4ccccn4n3)CC2)c1`, for which the activity change, negative = cytotoxicity was 3.79% (inactive).

Turning to `CCOc1ccc(/C=C2\CCCc3c2nc2ccccc2c3C(=O)O)cc1OC`, the activity change, negative = cytotoxicity is -5% (inactive).

Turning to `CN1C(=O)NC(c2ccccc2[N+](=O)[O-])C2=C1CCCC2=O` (stereo unspecified), the activity change, negative = cytotoxicity is -9.55% (inactive).

As to `Nc1ccccc1C(=O)N1O[C@@H]2C=C[C@H]1CC2`, the activity change, negative = cytotoxicity was -9.71% (inactive).

In the case of `Nc1ccc2ccc3cccc[n+]3c2c1`, the activity change, negative = cytotoxicity was -15.1% (inactive).

`COC(=O)C1CCN(C(=O)COC(=O)Cc2c[nH]c3ccccc23)CC1`: the activity change, negative = cytotoxicity is -20.6% (inactive).

As to `C=CCNC(=S)N1CCN(S(=O)(=O)c2ccc(C)cc2)CC1`, the activity change, negative = cytotoxicity was -6.85% (inactive).

In the case of `CCN(CC)c1ccc2cc(S(=O)(=O)c3ccc(C)cc3)c(=O)oc2c1`, the activity change, negative = cytotoxicity was -3.69% (inactive).

For `Cc1cccc(N2C(=O)c3cccc4c(N)ccc(c34)C2=O)c1`, the activity change, negative = cytotoxicity is 3.39% (inactive).

Take `Nc1ccc2c(O)cc(S(=O)(=O)O)cc2c1`: the activity change, negative = cytotoxicity was -11% (inactive).

Consider `COc1ccc(S(=O)(=O)N2CCC(C(=O)N3CCCCC3)CC2)cc1`, for which the activity change, negative = cytotoxicity is -17.6% (inactive).

Regarding `COC(=O)C1=COC(C)C2CN3CCc4c([nH]c5ccccc45)C3CC12` (stereo unspecified), the activity change, negative = cytotoxicity is -14.1% (inactive).

As to `O=C(O)/C(=C\c1cccs1)Sc1nnc(-c2ccc(F)cc2)o1`, the activity change, negative = cytotoxicity is 0.075% (inactive).

For the compound `O=C(N/N=C/c1ccc(N2CCOCC2)cc1)c1ccccn1`, the activity change, negative = cytotoxicity was -14.2% (inactive).
